Laboratory results from patent publication US6737383B1, “Herbicidal oxadiazolidines” (priority 1999, dated 2004).

Key:
bamyardgrass = experiment: Test B flood test barnyardgrass; format: in vivo, Echinochloa crus-galli; conditions: for Plant response rating, Barnyardgrass (0 to 10 scale, 0 is no effect, 10 is complete control): Rate 62 g/ha; for Plant response rating, Barnyardgrass (0 to 10 scale, 0 is no effect, 10 is complete control) / Barnyardgrass plant response rating (0 to 10 scale, 0 is no effect, 10 is complete control): visual evaluation after twelve to sixteen days; for Barnyardgrass plant response rating (0 to 10 scale, 0 is no effect, 10 is complete control): Rate 125 g/ha, under heading Pre-emergence
Method in brief: (§1)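 Read-out is a visual response score from 0 (no effect) to 10 (complete control), assigned by comparison with untreated controls. Treatment was applied at the 2-leaf stage, and plants stayed in the greenhouse for twelve to sixteen days before scoring.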

duck salad = experiment: Test B flood test duck salad; format: in vivo, Heteranthera limosa; conditions: for Plant response rating, Ducksalad (0 to 10 scale, 0 is no effect, 10 is complete control): Rate 62 g/ha; for Plant response rating, Ducksalad (0 to 10 scale, 0 is no effect, 10 is complete control) / Ducksalad plant response rating (0 to 10 scale, 0 is no effect, 10 is complete control): visual evaluation after twelve to sixteen days; for Ducksalad plant response rating (0 to 10 scale, 0 is no effect, 10 is complete control): Rate 125 g/ha, under heading Pre-emergence
Method in brief: as §1

sugar beet = experiment: Test B pre/postemergence sugar beet; format: in vivo, Beta vulgaris
Method in brief: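 Herbicidal effect was estimated by eye on a ten-point control scale after plants spent twelve to sixteen days in a greenhouse following soil or foliar treatment. Foliar sprays targeted plants at one to four leaves; all doses were formulated in a non-phytotoxic solvent with surfactant.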

smallflower flatsedge = experiment: Test B flood test smallflower flatsedge; format: in vivo, Cyperus difformis; conditions: for Plant response rating, S. Flatsedge (0 to 10 scale, 0 is no effect, 10 is complete control): Rate 62 g/ha; for Plant response rating, S. Flatsedge (0 to 10 scale, 0 is no effect, 10 is complete control) / S. Flatsedge plant response rating (0 to 10 scale, 0 is no effect, 10 is complete control): visual evaluation after twelve to sixteen days; for S. Flatsedge plant response rating (0 to 10 scale, 0 is no effect, 10 is complete control): Rate 125 g/ha, under heading Pre-emergence
Method in brief: as §1

rice = experiment: Test B flood test rice; format: in vivo, Oryza sativa; conditions: for Plant response rating, Rice (0 to 10 scale, 0 is no effect, 10 is complete control): Rate 62 g/ha; for Plant response rating, Rice (0 to 10 scale, 0 is no effect, 10 is complete control) / Rice plant response rating (0 to 10 scale, 0 is no effect, 10 is complete control): visual evaluation after twelve to sixteen days; for Rice plant response rating (0 to 10 scale, 0 is no effect, 10 is complete control): Rate 125 g/ha, under heading Pre-emergence
Method in brief: as §1

[1] = flood test species, Pre-emergence
[2] = Rate 250 g/ha, Pre-emergence, flood-test species, scale 0 to 10, 0 is no effect, 10 is complete control
[3] = Rate 500 g/ha, Pre-emergence, flood test species, scale 0 to 10 (0 no effect, 10 complete control)
[4] = Postemergence, Rate 125 g/ha, scale 0 to 10, 0 is no effect, 10 is complete control
[5] = Postemergence, Rate 250 g/ha, scale 0 to 10, 0 is no effect, 10 is complete control
[6] = Preemergence, Rate 62 g/ha, scale 0 to 10 (0 no effect, 10 complete control)
[7] = Preemergence, Rate 250 g/ha, scale of 0 to 10 where 0 is no effect and 10 is complete control
[8] = Preemergence, Rate 500 g/ha, scale of 0 to 10 where 0 is no effect and 10 is complete control
[9] = Rate 62 g/ha, Postemergence, scale of 0 to 10 where 0 is no effect and 10 is complete control
[10] = Rate 500 g/ha, Postemergence, scale 0 to 10, 0 no effect, 10 complete control
[11] = Rate 250 g/ha, Pre-emergence (flood test species), scale 0 to 10, 0 is no effect, 10 is complete control
[12] = Postemergence, Rate 250 g/ha, scale 0 to 10
[13] = Preemergence, Rate 62 g/ha, scale of 0 to 10 where 0 is no effect and 10 is complete control
[14] = Preemergence, Rate 125 g/ha, scale of 0 to 10 where 0 is no effect and 10 is complete control
[15] = Preemergence, Rate 250 g/ha, scale 0 to 10, 0 is no effect, 10 is complete control
[16] = Preemergence, Rate 500 g/ha, scale 0 to 10, 0 is no effect, 10 is complete control
[17] = Rate 62 g/ha, Postemergence, scale 0 to 10 (0 no effect, 10 complete control)
[18] = Rate 125 g/ha, Postemergence, scale 0 to 10, 0 is no effect, 10 is complete control
[19] = Rate 31 g/ha, Pre-emergence section (flood test species), scale 0 to 10

Row | SMILES | Plant response rating, Barnyardgrass (0 to 10 scale, 0 is no effect, 10 is complete control) (bamyardgrass; [1]) | Barnyardgrass plant response rating (0 to 10 scale, 0 is no effect, 10 is complete control) (bamyardgrass; flood test species) | Barnyardgrass plant response rating (bamyardgrass; [3]) | Plant response rating, Ducksalad (0 to 10 scale, 0 is no effect, 10 is complete control) (duck salad; [1]) | Ducksalad plant response rating (0 to 10 scale, 0 is no effect, 10 is complete control) (duck salad; flood test species) | Ducksalad plant response rating (duck salad; [3]) | Plant response rating, S. Flatsedge (0 to 10 scale, 0 is no effect, 10 is complete control) (smallflower flatsedge; [1]) | S. Flatsedge plant response rating (0 to 10 scale, 0 is no effect, 10 is complete control) (smallflower flatsedge; flood test species) | S. Flatsedge plant response rating (smallflower flatsedge; [3]) | Plant response rating, Rice (0 to 10 scale, 0 is no effect, 10 is complete control) (rice; [1]) | Rice plant response rating (0 to 10 scale, 0 is no effect, 10 is complete control) (rice; flood test species) | Rice plant response rating (rice; [3]) | Barnyardgrass plant response rating (bamyardgrass; [11]) | Ducksalad plant response rating (duck salad; [11]) | Sugarbeets plant response rating (sugar beet; [12]) | Plant response rating, Sugarbeets (sugar beet; [13]) | Plant response rating, Sugarbeets (sugar beet; [14]) | Sugarbeets plant response rating (sugar beet; [15]) | Sugarbeets plant response rating (sugar beet; [17]) | Sugarbeets plant response rating (sugar beet; [18]) | other results
1 | Cc1nnsc1Cn1c(=O)on(C(=O)N(c2ccccc2)C(C)C)c1=O [Compound 378] | 0 | 0 | 0 | 0 | 0 | 0 | 0 | 0 | 0 | 0 | 0 | 0 |  |  |  |  |  |  |  |  | Barnyardgrass plant response rating (bamyardgrass; [2]): 0; Ducksalad plant response rating (duck salad; [2]): 0; Plant response rating, Sugarbeets (sugar beet; [4]): 0; Plant response rating, Sugarbeets (sugar beet; [5]): 0; Plant response rating, Sugarbeets (sugar beet; [6]): 0; Sugarbeets plant response rating (0 to 10 scale) (sugar beet; Preemergence, Rate 125 g/ha): 0; Sugarbeets plant response rating (sugar beet; [7]): 0; Sugarbeets plant response rating (sugar beet; [8]): 0; Sugarbeets plant response rating (sugar beet; [9]): 0; Plant response rating, Sugarbeets (sugar beet; [10]): 0; S. Flatsedge plant response rating (smallflower flatsedge; [2]): 0; Rice plant response rating (rice; [2]): 0
2 | Cc1nnsc1Cn1c(=O)on(C(=O)N(c2ccc(F)cc2)C(C)C)c1=O [Compound 380] | 0 | 0 | 0 | 0 | 0 | 0 | 0 | 0 | 0 | 0 | 0 | 0 |  |  |  |  |  |  |  |  | Barnyardgrass plant response rating (bamyardgrass; [2]): 0; Ducksalad plant response rating (duck salad; [2]): 0; Plant response rating, Sugarbeets (sugar beet; [4]): 0; Plant response rating, Sugarbeets (sugar beet; [5]): 0; Plant response rating, Sugarbeets (sugar beet; [6]): 0; Sugarbeets plant response rating (0 to 10 scale) (sugar beet; Preemergence, Rate 125 g/ha): 0; Sugarbeets plant response rating (sugar beet; [7]): 0; Sugarbeets plant response rating (sugar beet; [8]): 0; Sugarbeets plant response rating (sugar beet; [9]): 0; Plant response rating, Sugarbeets (sugar beet; [10]): 0; S. Flatsedge plant response rating (smallflower flatsedge; [2]): 0; Rice plant response rating (rice; [2]): 0
3 | CC(C)N(C(=O)n1oc(=O)n(N2C(C)CCCC2C)c1=O)c1ccc(F)cc1 (stereo not drawn) [Compound 382] | 0 | 0 | 0 | 0 | 0 | 0 | 0 | 0 | 0 | 0 | 0 | 0 |  |  |  |  |  |  |  |  | Barnyardgrass plant response rating (bamyardgrass; [2]): 0; Ducksalad plant response rating (duck salad; [2]): 0; Plant response rating, Sugarbeets (sugar beet; [4]): 0; Plant response rating, Sugarbeets (sugar beet; [5]): 0; Plant response rating, Sugarbeets (sugar beet; [6]): 0; Sugarbeets plant response rating (0 to 10 scale) (sugar beet; Preemergence, Rate 125 g/ha): 0; Sugarbeets plant response rating (sugar beet; [7]): 0; Sugarbeets plant response rating (sugar beet; [8]): 0; Sugarbeets plant response rating (sugar beet; [9]): 0; Plant response rating, Sugarbeets (sugar beet; [10]): 0; S. Flatsedge plant response rating (smallflower flatsedge; [2]): 0; Rice plant response rating (rice; [2]): 0
4 | CC(C)N(C(=O)n1oc(=O)n(C(C)Cl)c1=O)c1ccccc1 (stereo not drawn) [Compound 438] | 0 | 0 | 0 | 0 | 0 | 0 | 0 | 0 | 0 | 0 | 0 | 0 | 0 | 0 | 0 | 0 | 0 | 0 | 0 | 0 | Sugarbeets plant response rating (sugar beet; Postemergence, Rate 500 g/ha, scale of 0 to 10 where 0 is no effect and 10 is complete control): 0; Sugarbeets plant response rating (sugar beet; [16]): 0; S. Flatsedge plant response rating (smallflower flatsedge; [11]): 0; Rice plant response rating (rice; [11]): 0
5 | Cc1nc(C)c(C(C)n2c(=O)on(C(=O)N(c3ccccc3)C(C)C)c2=O)s1 (stereo not drawn) [Compound 442] | 0 | 0 |  | 0 | 0 |  | 0 | 0 |  | 0 | 0 |  | 0 | 0 | 0 | 0 | 0 | 0 | 0 | 0 | Barnyardgrass plant response rating (bamyardgrass; [19]): 0; Ducksalad plant response rating (duck salad; [19]): 0; Sugarbeets plant response rating (sugar beet; Postemergence, Rate 31 g/ha, visual rating, scale 0 to 10 (0 no effect, 10 complete control)): 0; S. Flatsedge plant response rating (smallflower flatsedge; [19]): 0; S. Flatsedge plant response rating (smallflower flatsedge; [11]): 0; Rice plant response rating (rice; [19]): 0; Rice plant response rating (rice; [11]): 0
6 | CC(C)N(C(=O)n1oc(=O)n(CC2=NOCC2)c1=O)c1ccc(F)cc1 [Compound 466] | 0 | 0 | 0 | 0 | 0 | 0 | 0 | 0 | 0 | 0 | 0 | 0 | 0 | 0 | 0 | 0 | 0 | 2 | 0 | 0 | Sugarbeets plant response rating (sugar beet; [16]): 4; S. Flatsedge plant response rating (smallflower flatsedge; [11]): 0; Rice plant response rating (rice; [11]): 0
7 | CC(C)N(C(=O)n1oc(=O)n(CCCl)c1=O)c1ccccc1 [Compound 469] | 0 | 0 | 0 | 0 | 0 | 0 | 0 | 0 | 0 | 0 | 0 | 0 | 0 | 0 | 2 | 6 | 8 | 8 | 0 | 0 | Sugarbeets plant response rating (sugar beet; [16]): 10; S. Flatsedge plant response rating (smallflower flatsedge; [11]): 0; Rice plant response rating (rice; [11]): 0
